Assay results from patent publication US20040110803A1, “Methods and compositions for the use of D-malic acid to decrease serum triglyceride, cholesterol and lipoprotein levels” (priority 2002, published 2004).
Structures can show the parent of a compound that is named as a salt. Where two headings read alike, the source gives them in different places.

Columns and labels:
Zucker fa/fa rat [1] = tested on: Zucker fa/fa rat
Procedure: After eight weeks of treatment, Experiment I was concluded with all ten rats being anesthetized with pentobarbital (40 mg/kg, i.p). […] In addition to body weight, the heart, liver, epididymal fat and left kidney were weighed. The aorta and a portion of the medial lobe of the liver were fixed in buffered 10% formalin and prepared for paraffin embedding and sectioning for pathological analysis.

Zucker fa/fa rat [2] = assay: Experiment I: body weight and serum analysis of Zucker fa/fa rats given D,L-malic acid, sodium salt in drinking water; format: in vivo
Zucker fa/fa rat [3] = assay: as above; format: in vivo; set-up: Serum T Chol / Serum HDL / Serum LDL / Serum VLDL / Serum Glucose: unit not given here; conditions: for Body Wt. / Serum Glucose / Serum HDL / Serum T Chol / Serum Triglyceride / Serum BUN / Serum Creatine / Serum K+ / Serum Na+ / Serum ALT / Serum AST / Serum LDL / Serum VLDL: mean ± SEM; for Body Wt.: in g; for Serum BUN / Serum Creatine: in mg/dL (unit assumed); for Serum K+ / Serum Na+: in mmol/L (unit assumed); for Serum ALT / Serum AST: in U/L (unit assumed); for Serum VLDL: calculated
Source text: The Zucker fa/fa rat model was selected to test the effects of malic acid supplements to the diet. The Zucker fa/fa rat is a genetically obese rat associated to elevated leptin levels in the blood. Among humans and most animal models, leptin is known to […], leading to elevated caloric intake and obesity. Associated with the leptin production is an elevation in serum insulin (Giridharan 1998). Thus, obesity can arise from the increase food intake and/or the lipogenic effects of insulin on adipose tissue and liver.
Two separate experiments were conducted on the Zucker fa/fa rat. The first experiment served as a pilot study for the second. In Experiment I, ten male, 7-week-old Zucker fa/fa rats were divided into two parametric groups based upon the results of a clinical serum analysis for lipids, glucose, hepatic enzymes, and ions. […] The control group of five rats received only tap water. After 2, 4, 7, and 10 and 12 weeks of treatment, 1-2 mL whole blood was collect from each rat via the tail caudal vein and the serum retained for analysis. All serum analysis was conducted in the out-patient clinical laboratory of the University Hospital of the University of Alabama at Birmingham with a Synchron LX System. The following methods for each parameter are used in their automated clinical systems.

Zucker fa/fa rat [4] = assay: Experiment II: L-, D,L- and D-malic acid in drinking water, food/water consumption, body weight, serum lipid/liver profile; conditions: for linear slope of body weight versus serum triglycerides, vs control and L-malic acid treated rats: FIG. 3, p≦0.01; for effect on serum lipid levels (hypolipidemic effect): oral, Zucker obese rat, conclusion in words; for water consumption, means between groups: L-malic acid vs control at 10 and 11 weeks of treatment
Procedure: (§1) In experiment II, forty male Zucker fa/fa rats at five to seven weeks of age began treatment similarly to the rats in Experiment I. At about 5 weeks of age, whole blood was collected from the tail caudal vein of each rat and lipid profiles were measured on the serum.
(§2) Food and water consumption was measured daily for each cage of two rats. Body weight was measured and tail caudal vein blood samples were collected at 6, 8, 10, 12, 14, 16, and 18 and 24 weeks of age. Rats received their oral treatment of malic acid isomers prior to the onset of hyperlipidemia and continued for 16 weeks. The lipid/liver profile was measured on the serum of each rate with the determination of serum triglycerides, total cholesterol, HDL, glucose, AST and ALT with the same procedures of Experiment I.
(§3) Experiment II. This follow-up experiment doubled the number of rats per group (ten/group) and included treatment groups to distinguish the roles of the D isomer and the L isomer of malic acid (Control, L-Malic, D,L-Malic, and D-Malic Acid).

[5] = tested on: liver of Zucker fa/fa rat; assay: Experiment I: hepatic nucleotide analysis by HPLC of frozen-acid extracted liver; format: in vivo; conditions: 12 weeks treatment
Procedure: After eight weeks of treatment, Experiment I was concluded with all ten rats being anesthetized with pentobarbital (40 mg/kg, i.p). Immediately prior to the rat's euthanasia, a portion of the medial lobe of the liver was weighed, immediately frozen, pulverized and extracted in 12% perchloric acid in dry ice for nucleotide analysis. The acid extracted tissue was thawed, neutralized in saturated potassium bicarbonate and centrifuged at 10,000×g for 15 minutes. The final supernatant was analyzed for nucleotides by HPLC according to the method of Jenkins, et al (1988).

Zucker fa/fa rat [6] = conditions: in vivo
Procedure: as §1, §2, §3

liver mitochondria = conditions: for concentrations at which not metabolized by mitochondria: oxygen consumption, FIG. 5
Procedure: To determine the effect of D-malic acid on hepatic mitochondria, mitochondria from the Sprague Dawley rat used for isoenzyme studies were prepared according to the method of Johnson and Lardy (1967). The […] pellet was resuspended in cold sucrose buffer and recentrifuged at 600×g. This supernatant was mixed with the original 600×g supernatant. The 10,000×g mitochondria pellet was suspended in 5 mL of sucrose buffer. […] Consumption of oxygen was represented as percent of oxygen saturation.

[7] = after four and six weeks of treatment, but not beyond, P≦0.05
[8] = −2 weeks Treatment (before dosing)
[9] = after 18 and 24 weeks of treatment, P≦0.01

For O=C(O)CC(O)C(=O)O (racemic) [D,L-malic acid, D,L-malic acid, sodium salt], the “histological examination of the aorta” value (Zucker fa/fa rat [1]; 12 week (20 weeks of age)) was “no pathology associated with plaque formation”, the “Percent Fatty Deposition in Hepatocytes, Mean of 200 cells/rat ± SEM” value (Zucker fa/fa rat [1]; 12 week treated, liver sections 8 um) was 45.69 ± 0.62% and the “Mean Organ Weights: Epididymal Fat” value (Zucker fa/fa rat [1]; 12 week treated, ± SEM) was 0.350 ± .050 gram. For the same compound, the “percent of fatty inclusions in hepatocytes vs control” value (Zucker fa/fa rat [1]; 200 hepatocytes, liver sections 8 um) was “no significant differences”, the “serum HDL cholesterol vs control” value (Zucker fa/fa rat [2]; after eight weeks of treatment, P≦0.05) was “significant decrease” and the “serum AST vs control” value (Zucker fa/fa rat [2]; [7]) was “significantly lowered”. The “serum total cholesterol vs control” value (Zucker fa/fa rat [2]; after six weeks of treatment, P≦0.05) was “significant decrease”, the “serum triglyceride levels vs control” value (Zucker fa/fa rat [2]; two to eight weeks of treatment, P≦0.01) was “significantly decreased” and the “Body Wt.” value (Zucker fa/fa rat [3]; 0 weeks Treatment (start of dosing)) was 484 ± 10. The “Serum Glucose” value (Zucker fa/fa rat [3]; 2 weeks Treatment) was 167 ± 14, the “Serum HDL” value (Zucker fa/fa rat [3]; 2 weeks Treatment) was 92 ± 4 and the “Serum T Chol” value (Zucker fa/fa rat [3]; 2 weeks Treatment) was 96 ± 5. The “Serum Triglyceride” value (Zucker fa/fa rat [3]; 2 weeks Treatment) was 358 ± 51 mg %, the “Body Wt.” value (Zucker fa/fa rat [3]; 2 weeks Treatment) was 553 ± 14 and the “Serum BUN” value (Zucker fa/fa rat [3]; 2 weeks Treatment) was 13 ± 0.5. For the same compound, the “Serum Creatine” value (Zucker fa/fa rat [3]; 2 weeks Treatment) was “.42 ± .02”, the “Serum K+” value (Zucker fa/fa rat [3]; 2 weeks Treatment) was 5.6 ± 0.3 and the “Serum Na+” value (Zucker fa/fa rat [3]; 2 weeks Treatment) was 141 ± 0.6. For the same compound, the “Serum Glucose” value (Zucker fa/fa rat [3]; 4 weeks Treatment) was 156 ± 12, the “Serum HDL” value (Zucker fa/fa rat [3]; 4 weeks Treatment) was 87 ± 3 and the “Serum T Chol” value (Zucker fa/fa rat [3]; 4 weeks Treatment) was 99 ± 5. For the same compound, the “Serum Triglyceride” value (Zucker fa/fa rat [3]; 4 weeks Treatment) was 522 ± 82 mg %, the “Serum ALT” value (Zucker fa/fa rat [3]; 4 weeks Treatment) was 64 ± 4 and the “Serum AST” value (Zucker fa/fa rat [3]; 4 weeks Treatment) was 145 ± 13. The “Body Wt.” value (Zucker fa/fa rat [3]; 4 weeks Treatment) was 592 ± 15, the “Serum BUN” value (Zucker fa/fa rat [3]; 4 weeks Treatment) was 12 ± 0.6 and the “Serum Creatine” value (Zucker fa/fa rat [3]; 4 weeks Treatment) was “.38 ± .02”. The “Serum K+” value (Zucker fa/fa rat [3]; 4 weeks Treatment) was 5.8 ± 0.1, the “Serum Na+” value (Zucker fa/fa rat [3]; 4 weeks Treatment) was 143 ± 1.1 and the “Serum Glucose” value (Zucker fa/fa rat [3]; 7 weeks Treatment) was 173 ± 10. The “Serum HDL” value (Zucker fa/fa rat [3]; 7 weeks Treatment) was 110 ± 5, the “Serum T Chol” value (Zucker fa/fa rat [3]; 7 weeks Treatment) was 120 ± 8 and the “Serum Triglyceride” value (Zucker fa/fa rat [3]; 7 weeks Treatment) was 422 ± 44 mg %. The “Serum ALT” value (Zucker fa/fa rat [3]; 7 weeks Treatment) was 68 ± 2, the “Serum AST” value (Zucker fa/fa rat [3]; 7 weeks Treatment) was 126 ± 6 and the “Body Wt.” value (Zucker fa/fa rat [3]; 7 weeks Treatment) was 660 ± 19. For the same compound, the “Serum BUN” value (Zucker fa/fa rat [3]; 7 weeks Treatment) was 11 ± 0.3, the “Serum Creatine” value (Zucker fa/fa rat [3]; 7 weeks Treatment) was “.34 ± .02” and the “Serum K+” value (Zucker fa/fa rat [3]; 7 weeks Treatment) was 5.4 ± 0.2. For the same compound, the “Serum Na+” value (Zucker fa/fa rat [3]; 7 weeks Treatment) was 144 ± 0.4, the “Serum Glucose” value (Zucker fa/fa rat [3]; 10 weeks Treatment) was 141 ± 10 and the “Serum HDL” value (Zucker fa/fa rat [3]; 10 weeks Treatment) was 107 ± 10. The “Serum LDL” value (Zucker fa/fa rat [3]; 10 weeks Treatment) was 1.4 ± 1.4, the “Serum T Chol” value (Zucker fa/fa rat [3]; 10 weeks Treatment) was 123 ± 14 and the “Serum Triglyceride” value (Zucker fa/fa rat [3]; 10 weeks Treatment) was 430 ± 39 mg %. For the same compound, the “Serum VLDL” value (Zucker fa/fa rat [3]; 10 weeks Treatment) was 4 ± 4, the “Serum ALT” value (Zucker fa/fa rat [3]; 10 weeks Treatment) was 69 ± 4 and the “Serum AST” value (Zucker fa/fa rat [3]; 10 weeks Treatment) was 94 ± 2. For the same compound, the “Body Wt.” value (Zucker fa/fa rat [3]; 10 weeks Treatment) was 708 ± 26, the “Serum BUN” value (Zucker fa/fa rat [3]; 10 weeks Treatment) was 16 ± 1.2 and the “Serum Creatine” value (Zucker fa/fa rat [3]; 10 weeks Treatment) was “.32 ± .02”. For the same compound, the “Serum K+” value (Zucker fa/fa rat [3]; 10 weeks Treatment) was 6.6 ± 0.2, the “Serum Na+” value (Zucker fa/fa rat [3]; 10 weeks Treatment) was 143 ± 0.8 and the “Serum Glucose” value (Zucker fa/fa rat [3]; 12 weeks Treatment) was 153 ± 9. For the same compound, the “Serum HDL” value (Zucker fa/fa rat [3]; 12 weeks Treatment) was 117 ± 9, the “Serum LDL” value (Zucker fa/fa rat [3]; 12 weeks Treatment) was 6 ± 0.4 and the “Serum T Chol” value (Zucker fa/fa rat [3]; 12 weeks Treatment) was 137 ± 14. The “Serum Triglyceride” value (Zucker fa/fa rat [3]; 12 weeks Treatment) was 437 ± 35 mg %, the “Serum VLDL” value (Zucker fa/fa rat [3]; 12 weeks Treatment) was 14 ± 5 and the “Serum ALT” value (Zucker fa/fa rat [3]; 12 weeks Treatment) was 71 ± 6. The “Serum AST” value (Zucker fa/fa rat [3]; 12 weeks Treatment) was 115 ± 16, the “Body Wt.” value (Zucker fa/fa rat [3]; 12 weeks Treatment) was 722 ± 30 and the “Serum Creatine” value (Zucker fa/fa rat [3]; 12 weeks Treatment) was “.34 ± .02”. The “Serum K+” value (Zucker fa/fa rat [3]; 12 weeks Treatment) was 6.4 ± 0.1, the “Serum Na+” value (Zucker fa/fa rat [3]; 12 weeks Treatment) was 141 ± 0.6 and the “serum ALT vs control” value (Zucker fa/fa rat [3]; [7]) was “significantly lowered”. For the same compound, the “serum glucose, sodium, or potassium, HCO3, chloride, and BUN levels vs control” value (Zucker fa/fa rat [3]; in words) was “no detectable affect”, the “serum triglyceride levels vs control” value (Zucker fa/fa rat [3]; ten and twelve weeks of treatment, P≦0.001) was “differences were more remarkable” and the “effect on body weight” value (Zucker fa/fa rat [3]; vs control, in words) was “no effect”. The “Serum Glucose” value (Zucker fa/fa rat [3]; [8]) was 147 ± 2, the “Serum HDL” value (Zucker fa/fa rat [3]; [8]) was 90 ± 3 and the “Serum T Chol” value (Zucker fa/fa rat [3]; [8]) was 91 ± 4. The “Serum Triglyceride” value (Zucker fa/fa rat [3]; [8]) was 387 ± 41 mg %, the “Body Wt.” value (Zucker fa/fa rat [3]; [8]) was 359 ± 6 and the “Serum BUN” value (Zucker fa/fa rat [3]; [8]) was 21 ± 0.9. The “Serum Creatine” value (Zucker fa/fa rat [3]; [8]) was 0.46 ± 0.02, the “Serum K+” value (Zucker fa/fa rat [3]; [8]) was 6.1 ± 0.2 and the “Serum Na+” value (Zucker fa/fa rat [3]; [8]) was 147 ± 0.2. The “linear slope of body weight versus serum triglycerides, vs control and L-malic acid treated rats” value (Zucker fa/fa rat [4]) was “differs significantly”, the “mean serum triglycerides vs controls” value (Zucker fa/fa rat [4]; [9]) was “decreased below controls” and the “effect on serum lipid levels (hypolipidemic effect)” value (“effect on serum lipid levels” below) (Zucker fa/fa rat [4]) was “significant hypolipidemic effect”. The “hepatic tissue NAD levels vs control” value [5] was “elevated but not significantly”, the “hepatic tissue levels of NADP vs control” value [5] was “significantly elevated” and the “mean hepatic purine nucleotides vs control” value [5] was “No significant differences”. For the same compound, the “Mean Hepatic Purine Dinucleotide Levels: NAD” value ([5]; ± SEM) was 350 ± 23 nmoles/gm tissue wet wt, the “Mean Hepatic Purine Nucleotides Level: ADP” value ([5]; ± SEM) was 125 ± 7 nmoles/gm tissue wet wt and the “Mean Hepatic Purine Nucleotides Level: AMP” value ([5]; ± SEM) was 168 ± 18 nmoles/gm tissue wet wt. The “Mean Hepatic Purine Nucleotides Level: ATP” value ([5]; ± SEM) was 556 ± 35 nmoles/gm tissue wet wt, the “Mean Hepatic Purine Nucleotides Level: Adenosine” value ([5]; ± SEM) was 65 nmoles/gm tissue wet wt and the “Mean Hepatic Purine Dinucleotide Levels: NADP” value ([5]; ± SEM, significantly different P ≦ 0.05) was 61.7 ± 3.8 nmoles/gm tissue wet wt. For the same compound, the “water consumption, means between groups” value (Zucker fa/fa rat [6]) was “did not differ”.

For O=C(O)C[C@@H](O)C(=O)O [D-malic acid, D-malic acid, sodium salt], the “effect on the metabolism of L-malic acid by mitochondria” value (liver mitochondria; 20 umoles/5 mL D-malic acid) was “inhibited”, the “transport of L-malic acid into the mitochondria” value (liver mitochondria; mitochondrial incubations) was “partially blocks” and the “concentrations at which not metabolized by mitochondria” value (liver mitochondria) was “less than 40 umoles/5 mL”. For the same compound, the “concentrations at which not metabolized by mitochondria” value (liver mitochondria; converted) was < 6.7 mM, the “linear slope of body weight versus serum triglycerides, vs control and L-malic acid treated rats” value (Zucker fa/fa rat [4]) was “differs significantly” and the “water consumption, means between groups” value (Zucker fa/fa rat [4]) was “did not differ”. For the same compound, the “mean serum triglycerides compared to controls” value (Zucker fa/fa rat [4]; after 12 weeks and beyond of treatment, P≦0.05) was “lowered”, the “mean serum triglycerides vs controls” value (Zucker fa/fa rat [4]; [9]) was “decreased below controls” and the “effect on serum lipid levels” value (Zucker fa/fa rat [4]) was “effective”.

With O=C(O)C[C@H](O)C(=O)O [L-malic acid, L-malic acid, sodium salt, reference compound] the “food consumption (rat chow consumed/rat/day) vs control” value (Zucker fa/fa rat [4]; 6 to 20 weeks of age) was “tended to eat more rat chow”, the “mean serum levels of triglycerides vs control” value (Zucker fa/fa rat [4]; 8 to 24 weeks of age) was “no significant difference” and the “mean serum total cholesterol vs control” value (Zucker fa/fa rat [4]; 8 to 24 weeks of age) was “no significant difference”. The “water consumption, means between groups” value (Zucker fa/fa rat [4]; sodium salt) was “Significant differences”, the “mean serum triglycerides vs controls” value (Zucker fa/fa rat [4]; after 24 weeks of age (18 weeks of treatment)) was “greater mean serum triglycerides than controls but not statistically significant” and the “mean serum glucose vs control” value (Zucker fa/fa rat [4]; only weeks 8 and 16, P≦0.05) was “sporadically (only weeks 8 and 16) elevated”. For the same compound, the “effect on serum lipid levels” value (Zucker fa/fa rat [4]; listed as L-isomer of malic acid, sodium salt) was “no effect”.
